According to patent publication US12285011B2, “Insecticidal formulation for vector and pest control with increased contact efficacy” (DISCOVERY PURCHASER CORPORATION, priority 2018, dated 2025):
Read-outs that look alike come from different tables or passages of the source.

Assay: Water solubility at pH 7 (HPLC-MS)
Type: physicochemical
Conditions: thermodynamic from solid
Method: In another preferred embodiment of the invention the insecticidal active ingredient—matrix particles comprise one insecticidal active ingredient with the above indicated physicochemical properties. The melting points according to the invention are measured under standard conditions (1 atmosphere). Water solubility are indicated in percentage referring to the quotient of (g) gram insecticidal active ingredient/100 ml water. Water solubility is preferably measured with liquid chromatography e.g. with a HPLC-MS system (at 20° C., 1 atmosphere and pH 7, see also example 1 as a reference).
The reported water solubilities as shown in table 1 are determined as follows: Preparation of calibration standards: A 1000 ppm solution of the analyte in acetonitrile is prepared and from this at least three calibration points are obtained by dilution with acetonitrile going down to 0.01 mg/L, if needed. Sample Preparation: Two cavities of a deepwell are filled each with about 0.6 mg of homogenized sample and 500 μL of a pH 7 phosphate buffer is added. A glass pearl is added to each cavity, the deepwell is sealed and shaken for at least 24 h at 1600 rpm at 23° C. After the shaking procedure the solution is filtered. Aliquots of the filtrates are analysed via a HPLC-MS system with DAD and MS detection. The peak areas of all selected single DAD and ion traces are taken for the calculations. The calculation is done by external calibration against the areas of the standard samples (linear regression). The mean of all calculated values gives the water solubility of the active ingredient.

[1] = aqueous buffer, pH 7 phosphate buffer, shaken at least 24 h at 23° C., technical grade active ingredient, read-out: water solubility at pH 7

Row | solubility [1] | Structure (SMILES) | solubility (23 °C, pH 7, aqueous buffer)
1 | < 0.01 µg/mL | CN(C(=O)c1ccccc1)c1cccc(C(=O)Nc2c(Br)cc(C(F)(C(F)(F)F)C(F)(F)F)cc2C(F)(F)F)c1F [broflanilide, 3-[benzoyl(methyl)amino]-N-[2-bromo-4-(1,1,1,2,3,3,3-heptafluoropropan-2-yl)-6-(trifluoromethyl)phenyl]-2-fluorobenzamide, reference compound] | –
2 | < 0.01 µg/mL | CN(C(=O)c1cc(-c2cnn(-c3c(Cl)cc(C(F)(C(F)(F)F)C(F)(F)F)cc3Cl)c2)cnc1Cl)C1CC1 [2-chloro-N-cyclopropyl-5-{1-[2,6-dichloro-4-(1,1,1,2,3,3,3-heptafluoropropan-2-yl)phenyl]-1H-pyrazol-4-yl}-N-methylnicotinamide] | –
3 | – | CCN1OC[C@@H](NC(=O)c2ccc(C3=NO[C@@](c4cc(Cl)c(F)c(Cl)c4)(C(F)(F)F)C3)cc2C)C1=O [4-[(5S)-5-(3,5-dichloro-4-fluorophenyl)-5-(trifluoromethyl)-4,5-dihydro-1,2-oxazol-3-yl]-N-[(4R)-2-ethyl-3-oxo-1,2-oxazolidin-4-yl]-2-methylbenzamide] | < 0.01 µg/mL
